The assay deals with T1, Full-length glucokinase (beta cell isoform) (Homo sapiens, UniProt P35557).
T1 construct: Full-length glucokinase (beta cell isoform) was His-tagged at N-terminus; His tag (N); made in house
T1 sequence (P35557 1-465): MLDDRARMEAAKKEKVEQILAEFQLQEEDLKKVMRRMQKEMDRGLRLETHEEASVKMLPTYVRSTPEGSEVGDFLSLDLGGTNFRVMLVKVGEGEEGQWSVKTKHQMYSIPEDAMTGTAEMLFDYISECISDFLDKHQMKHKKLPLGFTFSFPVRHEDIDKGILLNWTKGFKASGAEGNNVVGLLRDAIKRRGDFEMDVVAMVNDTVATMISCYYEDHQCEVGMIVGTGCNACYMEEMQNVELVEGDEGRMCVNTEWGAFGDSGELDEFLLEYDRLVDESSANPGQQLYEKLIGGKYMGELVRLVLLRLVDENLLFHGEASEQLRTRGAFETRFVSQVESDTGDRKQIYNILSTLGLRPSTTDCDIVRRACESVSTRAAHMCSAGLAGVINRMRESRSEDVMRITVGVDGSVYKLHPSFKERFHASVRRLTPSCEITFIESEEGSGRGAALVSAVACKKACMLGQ
The assay can be described thus: Glucokinase biochemical assay (PK/LDH-coupled, NADH depletion at 340 nm): % activation, EC50, % max activation. The following applies: 5 mM glucose; for activation at 10 µM: 10 uM compound, % Activation=(Va/Vo−1)×100, read-out: % Activation at 10 uM; for EC50: GK activation, read-out: EC50; for Emax: fitted maximum activation, read-out: % Max Activation. The method, boiled down: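 N-terminally His-tagged full-length human beta-cell glucokinase, room temperature, 5 mM glucose, 1 mM ATP, PK/LDH-coupled with 0.7 mM NADH, 1% DMSO final. Initial velocity from the 200–900 s slope of A340 decline. % activation = (Va/Vo−1)×100, measured across compound concentrations.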

The structures appear in SMILES notation.

A word on the EC50: it is the concentration giving half of the maximal effect.

Take `Cc1ccc(NC(=O)c2cc(OC(C)C)cc3oc(C(C)C)cc23)nc1` [Example 348, 6-Isopropoxy-2-isopropyl-N-(5-methylpyridin-2-yl)benzofuran-4-carboxamide]: the activation at 10 µM is 16.6%.

`Cc1ccc(NC(=O)c2cc(OC(C)C)cc3oc(C(=O)N4CCC4)cc23)nc1` [Example 349, 2-(Azetidine-1-carbonyl)-6-isopropoxy-N-(5-methylpyridin-2-yl)benzofuran-4-carboxamide]: the activation at 10 µM was -32.1%.

On to `Cc1ccc(NC(=O)c2cc(Oc3ccc(S(C)(=O)=O)cc3)c3c(C)csc3c2)nc1` [Example 350, 3-Methyl-N-(5-methylpyridin-2-yl)-4-[4-(methylsulfonyl)-phenoxy]-1-benzothiophene-6-carboxamide], for which the activation at 10 µM was found to be 11.2%.

With `Cc1csc2cc(C(=O)Nc3ccn(C)n3)cc(Oc3ccc(S(C)(=O)=O)cc3)c12` [Example 351, 3-Methyl-N-(1-methyl-1H-pyrazol-3-yl)-4-[4-(methylsulfonyl)-phenoxy]-1-benzothiophene-6-carboxamide], the activation at 10 µM amounted to 0.9%.

`Cc1csc2cc(C(=O)Nc3ccn(C)n3)cc(Oc3ccc(C(=O)N(C)C)cc3)c12` [Example 352, 4-{4-[(Dimethylamino)carbonyl]phenoxy}-3-methyl-N-(1-methyl-1H-pyrazol-3-yl)-1-benzothiophene-6-carboxamide]: the activation at 10 µM is 12.3%.

For `Cc1ccc(NC(=O)c2cc(Oc3ccc(C(=O)N(C)C)cc3)c3c(C)csc3c2)nc1` [Example 353, 4-{4-[(Dimethylamino)carbonyl]phenoxy}-3-methyl-N-(5-methylpyridin-2-yl)-1-benzothiophene-6-carboxamide], the activation at 10 µM amounted to 3.4%.

As for `Cc1csc2cc(C(=O)Nc3ccn(C)n3)cc(O[C@@H](C)Cc3ccccc3)c12` [Example 354, 3-Methyl-4-[(1S)-1-methyl-2-phenylethoxy]-N-(1-methyl-1H-pyrazol-3-yl)-1-benzothiophene-6-carboxamide], the activation at 10 µM was 3.5%.

For `Cc1ccc(NC(=O)c2cc(Oc3ccc(S(C)(=O)=O)cc3)c3ccsc3c2)nc1` [Example 355, 4-(4-Methanesulfonyl-phenoxy)-benzo[b]thiophene-6-carboxylic acid(5-methyl-pyridin-2-yl)-amide], the activation at 10 µM came out at 114%, the EC50 was 0.52 µM and the Emax worked out at 110%.

With `Cn1ccc(NC(=O)c2cc(Oc3ccc(S(C)(=O)=O)cc3)c3ccsc3c2)n1` [Example 356, 4-(4-(Methylsulfonyl)phenoxy)-N-(1-methyl-1H-pyrazol-3-yl)benzo-[b]-thiophene-6-carboxamide], the activation at 10 µM is 77.4% and the EC50 is > 10 µM.

As for `CN(C)C(=O)c1ccc(Oc2cc(C(=O)Nc3ccn(C)n3)cc3sccc23)cc1F` [Example 357, 4-(4-(Dimethylcarbamoyl)-3-fluorophenoxy)-N-(1-methyl-1H-pyrazol-3-yl)benzo[b]thiophene-6-carboxamide], the activation at 10 µM was found to be 32.7%.

In the case of `Cc1ccc(NC(=O)c2cc(Oc3ccc(C(=O)N(C)C)c(F)c3)c3ccsc3c2)nc1` [Example 358, 4-(4-(Dimethylcarbamoyl)-3-fluorophenoxy)-N-(5-methylpyridin-2-yl)benzo[b]thiophene-6-carboxamide], the activation at 10 µM came to 50.4%, the EC50 turned out to be 0.33 µM and the Emax is 56%.

As for `Cc1ccc(NC(=O)c2cc(Oc3ccc(S(C)(=O)=O)cc3)c3cc(C)sc3c2)nc1` [Example 359, 4-(4-Methanesulfonyl-phenoxy)-2-methyl-benzo[b]thiophene-6-carboxylic acid (5-methyl-pyridin-2-yl)-amide], the activation at 10 µM turned out to be 69.9%, the EC50 was 0.19 µM and the Emax is 70%.

Turning to `Cc1cc2c(Oc3ccc(S(C)(=O)=O)cc3)cc(C(=O)Nc3ccn(C)n3)cc2s1` [Example 360, 4-(4-(Methylsulfonyl)phenoxy)-2-methyl-N-(1-methyl-1H-pyrazol-3-yl)benzo[b]thiophene-6-carboxamide], the activation at 10 µM came to 129%, the EC50 worked out at 0.62 µM and the Emax was found to be 142%.

For the compound `Cc1ccc(NC(=O)c2cc(Oc3ccc(C(=O)N(C)C)c(F)c3)c3cc(C)sc3c2)nc1` [Example 361, 4-(4-(Dimethylcarbamoyl)-3-fluorophenoxy)-2-methyl-N-(5-methylpyridin-2-yl)benzo[b]thiophene-6-carboxamide], the activation at 10 µM is 4.2%.

In the case of `Cc1cc2c(Oc3ccc(C(=O)N(C)C)c(F)c3)cc(C(=O)Nc3ccn(C)n3)cc2s1` [Example 362, 4-(4-(Dimethylcarbamoyl)-3-fluorophenoxy)-2-methyl-N-(1-methyl-1H-pyrazol-3-yl)benzo[b]thiophene-6-carboxamide], the activation at 10 µM turned out to be 25.9%.

For `Cc1ccc(NC(=O)c2cc(Oc3ccc(S(C)(=O)=O)cc3)c3sccc3c2)nc1` [Example 363, 7-(4-Methanesulfonyl-phenoxy)-benzo[b]thiophene-5-carboxylic acid(5-methyl-pyridin-2-yl)-amide], the activation at 10 µM came to 52.3%, the EC50 was 7.65 µM and the Emax is 99%.

`Cn1ccc(NC(=O)c2cc(Oc3ccc(S(C)(=O)=O)cc3)c3sccc3c2)n1` [Example 364, 7-(4-(Methylsulfonyl)phenoxy)-N-(1-methyl-1H-pyrazol-3-yl)benzo-[b]-thiophene-5-carboxamide]: the activation at 10 µM was determined as 45.8% and the EC50 was > 10 µM.

Turning to `Cc1ccc(NC(=O)c2cc(Oc3ccc(C(=O)N(C)C)c(F)c3)c3sccc3c2)nc1` [Example 365, 7-(4-(Dimethylcarbamoyl)-3-fluorophenoxy)-N-(5-methylpyridin-2-yl)benzo[b]thiophene-5-carboxamide], the activation at 10 µM came out at 4%.

As to `CN(C)C(=O)c1ccc(Oc2cc(C(=O)Nc3ccn(C)n3)cc3ccsc23)cc1F` [Example 366, 7-(4-(Dimethylcarbamoyl)-3-fluorophenoxy)-N-(1-methyl-1H-pyrazol-3-yl)benzo[b]thiophene-5-carboxamide], the activation at 10 µM turned out to be 6.4%.

`Cc1ccc(NC(=O)c2cc(Oc3ccc(S(C)(=O)=O)cc3)c3ocnc3c2)nc1` [Example 367, N-(5-methylpyridin-2-yl)-7-[4-(methylsulfonyl)phenoxy]-1,3-benzoxazole-5-carboxamide]: the activation at 10 µM stood at 47%, the EC50 was 5.8 µM and the Emax was found to be 59%.

`Cc1nc2cc(C(=O)Nc3ccn(C)n3)cc(Oc3ccc(S(C)(=O)=O)cc3)c2o1` [Example 368, 2-Methyl-N-(1-methyl-1H-pyrazol-3-yl)-7-[4-(methylsulfonyl)-phenoxy]-1,3-benzoxazole-5-carboxamide]: the activation at 10 µM was 48.2% and the EC50 is > 10 µM.

Consider `Cc1ccc(NC(=O)c2cc(Oc3ccc(S(C)(=O)=O)cc3)c3oc(C)nc3c2)nc1` [Example 369, 2-Methyl-N-(5-methylpyridin-2-yl)-7-[4-(methylsulfonyl)-phenoxy]-1,3-benzoxazole-5-carboxamide], for which the activation at 10 µM came to 66.1%, the EC50 was found to be 3.7 µM and the Emax came to 66%.

The values above are taken from patent publication US8119624B2, “Fused phenyl amido heterocyclic compounds” (Pfizer Inc., priority 2006, dated 2012).
